# Reference: patent US10765676B2, “Trk-inhibiting compound” (ONO PHARMACEUTICAL CO., LTD., priority 2013, dated 2020)
# Tested on: sodium monoiodoacetate-induced model rats
# Assay: Analgesic effect on sodium monoiodoacetate-induced model rats
# Assay type: in vivo, rat
# Details: MIA-induced model rats; day 24; 3 mg/kg subcutaneously 1 hour before the measurement; positive control drug
row,Structure (SMILES),Percent improvement (%)
1,"CN1CC[C@]23c4c5ccc(O)c4O[C@H]2[C@@H](O)C=C[C@H]3[C@H]1C5 [Morphine, morphine, reference compound]",54

# Same assay, conditions: MIA-induced model rats; day 24; 10 mg/kg subcutaneously 1 hour before the measurement; positive control drug
row,Structure (SMILES),Percent improvement (%)
1,"COc1cccc(C2(O)CCCCC2CN(C)C)c1 (centres unmarked) [Tramadol, tramadol, reference compound]",43

# Same assay, conditions: MIA-induced model rats; right hind limb weight load ratio, day 24; test substance orally twice a day from day 14; experiment with morphine as positive control (Table 8)
row,Structure (SMILES),Percent improvement (%)
1,"CS(=O)(=O)c1ccc(C(F)(F)F)cc1NC(=O)Nc1cnc(Oc2ccc(-c3cc(Cl)cnc3N)cc2)nc1 [Example 15-104, 1-{2-[4-(2-amino-5-chloro-3-pyridinyl)phenoxy]-5-pyrimidinyl}-3-[2-(methylsulfonyl)-5-(trifluoromethyl)phenyl]urea]",54
2,"Nc1ncc(Cl)cc1-c1ccc(Oc2ncc(NC(=O)Nc3cc(C(F)(F)F)ccc3-n3cc(Cl)cn3)cn2)cc1 [Example 15-63, 1-{2-[4-(2-amino-5-chloro-3-pyridinyl)phenoxy]-5-pyrimidinyl}-3-[2-(4-chloro-1H-pyrazol-1-yl)-5-(trifluoromethyl)phenyl]urea]",53
3,"CS(=O)(=O)c1ccc(C(F)(F)F)cc1NC(=O)Nc1cnc(Oc2ccc(-c3cc(C(F)(F)F)cnc3N)cc2)nc1 [Example 15-98, 1-(2-{4-[2-amino-5-(trifluoromethyl)-3-pyridinyl]phenoxy}-5-pyrimidinyl)-3-[2-(methylsulfonyl)-5-(trifluoromethyl)phenyl]urea]",57
4,"Nc1ncc(F)cc1-c1ccc(Oc2ncc(NC(=O)Nc3cc(C(F)(F)F)ccc3-c3cccnc3)cn2)cc1 [Example 14-6, 1-(2-(4-(2-amino-5-fluoropyridin-3-yl)phenoxy)pyrimidin-5-yl)-3-(2-(pyridin-3-yl)-5-(trifluoromethyl)phenyl)urea]",53
5,"Nc1ncc(C(F)(F)F)cc1-c1ccc(Oc2ncc(NC(=O)Nc3cc(C(F)(F)F)ccc3-n3ccc(C(F)(F)F)n3)cn2)cc1 [Example 15-52, 1-(2-{4-[2-amino-5-(trifluoromethyl)-3-pyridinyl]phenoxy}-5-pyrimidinyl)-3-{5-(trifluoromethyl)-2-[3-(trifluoromethyl)-1H-pyrazol-1-yl]phenyl}urea]",60
6,"Cc1cccc(-c2ccc(C(F)(F)F)cc2NC(=O)Nc2cnc(Oc3ccc(-c4cnn5ccc(N(C)C)nc45)cc3)nc2)c1 [Example 21-73, 1-(2-{4-[5-(dimethylamino)pyrazolo[1,5-a]pyrimidin-3-yl]phenoxy}-5-pyrimidinyl)-3-[3′-methyl-4-(trifluoromethyl)-2-biphenylyl]urea]",62
7,"CN(C)c1ccn2ncc(-c3ccc(Oc4ncc(NC(=O)Nc5cc(C(F)(F)F)ccc5-c5ccccc5)cn4)cc3)c2n1 [Example 21-70, 1-(2-{4-[5-(dimethylamino)pyrazolo[1,5-a]pyrimidin-3-yl]phenoxy}-5-pyrimidinyl)-3-[4-(trifluoromethyl)-2-biphenylyl]urea]",61
8,"Nc1ncc(C(F)(F)F)cc1-c1ccc(Oc2ncc(NC(=O)Nc3cc(C(F)(F)F)ccc3-n3cc(Cl)cn3)cn2)cc1 [Example 15-87, 1-(2-{4-[2-amino-5-(trifluoromethyl)-3-pyridinyl]phenoxy}-5-pyrimidinyl)-3-[2-(4-chloro-1H-pyrazol-1-yl)-5-(trifluoromethyl)phenyl]urea]",57
9,"Nc1ncc(Cl)cc1-c1ccc(Oc2ncc(NC(=O)Nc3ccc(C(F)(F)F)cc3C(F)(F)F)cn2)cc1 [Example 15-77, 1-{2-[4-(2-amino-5-chloro-3-pyridinyl)phenoxy]-5-pyrimidinyl}-3-[2,4-bis(trifluoromethyl)phenyl]urea]",55
10,"CN(C)c1ccn2ncc(-c3ccc(Oc4ncc(NC(=O)Nc5cc(C(F)(F)F)ccc5-c5ccnn5C)cn4)cc3)c2n1 [Example 21-51, 1-(2-{4-[5-(dimethylamino)pyrazolo[1,5-a]pyrimidin-3-yl]phenoxy}-5-pyrimidinyl)-3-[2-(1-methyl-1H-pyrazol-5-yl)-5-(trifluoromethyl)phenyl]urea]",68
11,"CN(C)c1ccn2ncc(-c3ccc(Oc4ncc(NC(=O)Nc5cc(C(F)(F)F)ccc5-c5cccnc5)cn4)cc3)c2n1 [Example 21-37, 1-(2-{4-[5-(dimethylamino)pyrazolo[1,5-a]pyrimidin-3-yl]phenoxy}-5-pyrimidinyl)-3-[2-(3-pyridinyl)-5-(trifluoromethyl)phenyl]urea]",67
12,"Nc1ncc(Cl)cc1-c1ccc(Oc2ncc(NC(=O)Nc3cc(C(F)(F)F)ccc3-c3ccccc3)cn2)cc1 [Example 15-55, 1-{2-[4-(2-amino-5-chloro-3-pyridinyl)phenoxy]-5-pyrimidinyl}-3-[4-(trifluoromethyl)-2-biphenylyl]urea]",62

# Same assay, conditions: MIA-induced model rats; right hind limb weight load ratio, day 24; test substance orally twice a day from day 14; experiment with tramadol as positive control (Table 7)
row,Structure (SMILES),Percent improvement (%)
1,"COc1ccn2ncc(-c3ccc(Oc4ncc(NC(=O)Nc5cc(C(F)(F)F)ccc5-c5cccnc5)cn4)cc3)c2n1 [Example 21-9, 1-(2-(4-(5-methoxypyrazolo[1,5-a]pyrimidin-3-yl)phenoxy)pyrimidin-5-yl)-3-(2-(pyridin-3-yl)-5-(trifluoromethyl)phenyl)urea]",64
2,"Nc1ncc(F)cc1-c1ccc(Oc2ncc(NC(=O)Nc3cc(C(F)(F)F)ccc3-n3ccnn3)cn2)cc1 [Example 14-5, 1-(2-(1H-1,2,3-triazol-1-yl)-5-(trifluoromethyl)phenyl)-3-(2-(4-(2-amino-5-fluoropyridin-3-yl)phenoxy)pyrimidin-5-yl)urea]",47
3,"Cc1cn(-c2ccc(C(F)(F)F)cc2NC(=O)Nc2cnc(Oc3ccc(-c4cc(Cl)cnc4N)cc3)nc2)nn1 [Example 8-1, 1-(2-(4-(2-amino-5-chloropyridin-3-yl)phenoxy)pyrimidin-5-yl)-3-(2-(4-methyl-1H-1,2,3-triazol-1-yl)-5-(trifluoromethyl)phenyl)urea]",60
4,"Nc1ncc(Cl)cc1-c1ccc(Oc2ncc(NC(=O)Nc3cc(C(F)(F)F)ccc3-n3cccn3)cn2)cc1 [Example 7, 1-(2-(1H-pyrazol-1-yl)-5-(trifluoromethyl)phenyl)-3-(2-(4-(2-amino-5-chloropyridin-3-yl)phenoxy)pyrimidin-5-yl) urea]",61
5,"O=C(Nc1cnc(Oc2ccc(-c3cnn4cccnc34)cc2)nc1)Nc1cc(C(F)(F)F)ccc1-c1cccnc1 [Example 21-13, l-(2-(4-(pyrazolo[1,5-a]pyrimidin-3-yl)phenoxy)pyrimidin-5-yl)-3-(2-(pyridin-3-yl)-5-(trifluoromethyl)phenyl)urea]",66
6,"Nc1ncc(Cl)cc1-c1ccc(Oc2ncc(NC(=O)Nc3ccc(C(F)(F)F)cc3Cl)cn2)cc1 [Example 15-6, 1-(2-(4-(2-amino-5-chloropyridin-3-yl)phenoxy)pyrimidin-5-yl)-3-(2-chloro-4-(trifluoromethyl)phenyl)urea]",51
